# Assay results published in ChEMBL document CHEMBL3887005, “N-cyclopropyl-N-piperidinyl-amides, pharmaceutical compositions containing them, and uses thereof” (2016).
# pEC50: −log10 of the molar value.
# Target: T1, Glucose-dependent insulinotropic receptor (Homo sapiens, UniProt Q8TDV5)
# T1 sequence (Q8TDV5 whole entry): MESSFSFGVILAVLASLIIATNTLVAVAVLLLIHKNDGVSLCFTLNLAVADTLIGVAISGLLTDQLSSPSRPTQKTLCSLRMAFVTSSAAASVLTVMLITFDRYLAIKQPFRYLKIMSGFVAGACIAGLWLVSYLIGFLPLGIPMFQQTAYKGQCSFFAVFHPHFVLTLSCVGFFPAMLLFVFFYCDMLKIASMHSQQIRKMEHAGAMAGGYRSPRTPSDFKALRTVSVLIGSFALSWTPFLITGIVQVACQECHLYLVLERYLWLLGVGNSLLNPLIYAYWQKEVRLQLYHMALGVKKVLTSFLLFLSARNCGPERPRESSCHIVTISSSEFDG
# Assay: AlphaScreen cAMP Assay: MIN6 cells [Miyazaki J et al. Endocrinology. 1990 July; 127(1):126-32] are stably transfected with an expression vector for human GPR119 cDNA (Acc. No. NP_848566). Min-6/hGPR119 cells are cultured in DMEM, 10% FBS, 50 uM β-mercaptoethanol, 0.3 mg/mL Geniticin, 2 mM GlutaMAX at 37° C. 5% CO2. For the assay, the cells are seeded in Optiplates (white, 384-well, 160W-barcoded, TC, sterile with lid, Cat. No. #6007688 (Perkin Elmer); 10000 cells/well; 50 ul). The plates covered with lids are then incubated for 24 hours at 37° C./5% CO2. After the medium is aspirated from the wells completely, 10 ul of the test compound are added, the compounds are diluted using stimulating buffer (140 mM NaCl, 3.6 mM KCl, 0.5 mM NaH2PO4, 0.5 mM MgSO4, 1.5 mM CaCl2, 10 mM Hepes, 5 mM NaHCO3; pH 7.4. 0.5 mM IBMX and 0.1% BSA, the final DMSO concentration is 1%). After 45 minutes incubation at room temperature (approx. 20° C.), the cAMP concentrations are determined using the AlphaScreen cAMP Assay Kit (Cat. No. #6760625R from PerkinElmer). […]
# Assay type: functional, cell-based
row,SMILES,pEC50
1,O=C(OC1CCCCC1)N1CCC(N(C(=O)c2ccc(-c3cnco3)cc2)C2CC2)CC1,7.23
2,CC(C)(C)OC(=O)N1CCC(N(C(=O)c2ccc(-c3ccc(CS(C)(=O)=O)cc3)cc2)C2CC2)CC1,7.24
